According to patent publication US20230279061A1, “ISOLATED PEPTIDE FOR A PEPTIDE COACERVATE, AND METHODS OF USE THEREOF” (NANYANG TECHNOLOGICAL UNIVERSITY, priority 2020, published 2023):
Where a SMILES comes first, the peptide text is derived from it. Where no end group is shown, it is not given here. The star is where a group is joined. X1 = O=C(OCCSSCCOC(=O)*)c1ccccc1; X2 = CC(=O)OCCSSCCOC(=O)*

Columns and labels:
HepG2 cells [1] = test: MTT cytotoxicity assay; format: cell-based; conditions: for cytotoxicity of peptide alone: free peptide, HepG2; for cytotoxicity of coacervates with luciferase-encoding mRNA: optimal concentration, HepG2 (FIG. 10C)
Method: (§1) The cytotoxicity of the therapeutics-loaded or pristine peptide coacervates was evaluated by using the methylthiazolyldiphenyl-tetrazolium bromide (MTT) assay. Following literature protocols (Chang, H. et al., Nano Letters, 2017, 17, 1678; Sun, Y. et al. Biomat., 2017, 117, 77), 10^4 of HepG2 or HEK293 cells in 100 µL of media (DMEM, 10% FBS, antibiotics) were transferred into 96-wells plates and incubated for 24 hours. Then, the media were replaced with 100 µL of Opti-MEM containing therapeutics-loaded coacervates (various concentration of therapeutics, 1 mg/mL HBpep-SP) or various concentrations of pristine coacervate suspensions. After 4 hours of uptake, the media were removed and the cells were washed by PBS twice before adding 100 µL of media (DMEM, 10% FBS, antibiotics). The cells were incubated for another 20 hours before 10 µL of 5 mg/mL MTT dissolved in PBS was added. The media were removed after 4 hours of incubation with MTT, and the cells were washed by PBS twice. After that, 100 µL of DMSO per well was added for absorbance measurements at 570 nm using a microplate reader (Infinite M200 Pro, Tecan, Switzerland). The relative cell viability was calculated as: […]
(§2) where At, Ab, and Ac represent the absorbance of tested cells, control cells and no cell, respectively.

[2] = Turbidity measurement of phase separation (coacervation) at various pH; format: physicochemical
From the text: The phase separation behavior of HBpep-K and HBpep-SR peptides at various pH was monitored turbidity measurements using a UV-Vis spectrometer (UV-2501PC, Shimadzu, Japan). The absorbance at 600 nm (A600) was used to calculate the relative turbidity (Lim, Z.W. et al., Bioconjugate Chem., 2018, 29, 2176) as: […]

[3] = Optical/fluorescence microscopy of coacervates; format: physicochemical; conditions: near-physiological conditions
Method: Optical and fluorescence microcopy images of HBpep-SP coacervates and fluorescence image of macromolecules-loaded HBpep-SP coacervates were taken using an invert fluorescence microscope (AxioObserver.Z1, Zeiss, Germany). Dynamic light scattering (DLS, ZetaPALS, Brookhaven, USA) system was employed to measure the size of pristine HBpep-SR coacervates and macromolecules-loaded HBpep-SR coacervates. The fresh prepared pristine or macromolecules-loaded coacervates (with or without 0.1 mg/mL of macromolecules, 1 mg/mL of modified peptides) was diluted into PBS with a volume ratio of 1 : 9.0 before the DLS test.

HEK293 cells = test: MTT cytotoxicity assay; format: cell-based; conditions: optimal concentration, HEK293 (FIG. 10D)
Method: as §1, §2

HepG2 cells [4] = test: X-Gal staining of cells after β-Gal delivery; format: cell-based; conditions: 24 hours
Method: (§3) For protein delivery into cells, 10^5 of cells were suspended in 1 mL of Dulbecco’s modified Eagle medium (DMEM) supplemented with 10% of fetal bovine serum, 100 units/mL of penicillin and 100 µg/mL of streptomycin, and then transferred into […] culture dishes. After 24 hours of incubation at 37° C. with 5% of CO2, the media was replaced with 900 µL of Opti-MEM. Then, 100 µL of freshly prepared protein-loaded HBpep-SA or HBpep-SP coacervate suspensions (0.1 mg/mL of cargos, 1 mg/mL of modified peptides) were added into the media. After 4 hours of incubation, the media was removed and the cells were washed with PBS twice before adding 1 mL of fresh media (DMEM, 10% FBS, antibiotics). The cells were incubated for another 20 hours and then washed twice at pH 5.0 in phosphate buffer to remove any coacervates that had not entered the cells, before being imaged under the fluorescence microscope (AxioObserver.Z1, Zeiss, Germany).
To further confirm the versatility of the HBpep-SR peptide coacervate delivery system, β-Gal, a very high MW enzyme (MW = 430 kDa) was selected to be recruited into the HBpep-SP peptide coacervate. Intracellular delivery of β-Gal is challenging because of the difficulty in forming complexes with common nanocarriers owing to its high MW (Mitragotri, S. et al., Nat. Reviews Drug Disc., 2014, 13, 655).

HepG2 cells [5] = test: Delivery of proteins and peptides into cells (fluorescence microscopy); format: cell-based; conditions: free form, not recruited in coacervates
Method: as §3

Compound: KLAKLAK KLAKLAK (KLAKLAKKLAKLAK) [PAD, proapoptotic domain peptide, reference compound]
- cytotoxicity of peptide alone (HepG2 cells [1]): negligible cytotoxicity

Compound: GHGVY GHGVY GHGPY K GHGPY GHGLY W (GHGVYGHGVYGHGPYKGHGPYGHGLYW; HBpep derivative) [HBpep-K, HBpep with a single lysine residue inserted at position 16]
- phase state at neutral pH ([2]; neutral pH): reverts to the single phase
- pH at which the peptide phase separates ([2]; turbidity at various pH): 9.0 pH

Compound: CC(C)C[C@H](NC(=O)CNC(=O)[C@H](Cc1c[nH]cn1)NC(=O)CNC(=O)[C@H](Cc1ccc(O)cc1)NC(=O)[C@@H]1CCCN1C(=O)CNC(=O)[C@H](Cc1c[nH]cn1)NC(=O)CNC(=O)[C@H](CCCCNC(=O)OCCSSCCOC(=O)c1ccccc1)NC(=O)[C@H](Cc1ccc(O)cc1)NC(=O)[C@@H]1CCCN1C(=O)CNC(=O)[C@H](Cc1c[nH]cn1)NC(=O)CNC(=O)[C@H](Cc1ccc(O)cc1)NC(=O)[C@@H](NC(=O)CNC(=O)[C@H](Cc1c[nH]cn1)NC(=O)CNC(=O)[C@H](Cc1ccc(O)cc1)NC(=O)[C@@H](NC(=O)CNC(=O)[C@H](Cc1c[nH]cn1)NC(=O)CN)C(C)C)C(C)C)C(=O)N[C@@H](Cc1ccc(O)cc1)C(=O)N[C@@H](Cc1c[nH]c2ccccc12)C(=O)O [HBpep-SP] (H-GHGVYGHGVYGHGPYK(X1)GHGPYGHGLYW-OH)
- stability of coacervate microdroplets [3]: formed stable microdroplets at near-physiological conditions
- cytotoxicity of coacervates with luciferase-encoding mRNA (HEK293 cells): neither HBpep-SA nor HBpep-SP peptide coacervates with luciferase-encoding mRNA caused cytotoxicity
- cytotoxicity of coacervates with luciferase-encoding mRNA (HepG2 cells [1]): neither HBpep-SA nor HBpep-SP peptide coacervates with luciferase-encoding mRNA caused cytotoxicity

Compound: β-Gal
- X-Gal staining (β-Gal activity in cells) (HepG2 cells [4]): no blue pigment formation

Compound: AVPIAQK [Smac, AVPIAQK, reference compound]
- cytotoxicity of peptide alone (HepG2 cells [1]): negligible cytotoxicity

Compound: CC(=O)OCCSSCCOC(=O)NCCCC[C@H](NC(=O)[C@H](Cc1ccc(O)cc1)NC(=O)[C@@H]1CCCN1C(=O)CNC(=O)[C@H](Cc1c[nH]cn1)NC(=O)CNC(=O)[C@H](Cc1ccc(O)cc1)NC(=O)[C@@H](NC(=O)CNC(=O)[C@H](Cc1c[nH]cn1)NC(=O)CNC(=O)[C@H](Cc1ccc(O)cc1)NC(=O)[C@@H](NC(=O)CNC(=O)[C@H](Cc1c[nH]cn1)NC(=O)CN)C(C)C)C(C)C)C(=O)NCC(=O)N[C@@H](Cc1c[nH]cn1)C(=O)NCC(=O)N1CCC[C@H]1C(=O)N[C@@H](Cc1ccc(O)cc1)C(=O)NCC(=O)N[C@@H](Cc1c[nH]cn1)C(=O)NCC(=O)N[C@@H](CC(C)C)C(=O)N[C@@H](Cc1ccc(O)cc1)C(=O)N[C@@H](Cc1c[nH]c2ccccc12)C(=O)O [HBpep-SA] (H-GHGVYGHGVYGHGPYK(X2)GHGPYGHGLYW-OH)
- stability of coacervate microdroplets [3]: formed stable microdroplets at near-physiological conditions
- cytotoxicity of coacervates with luciferase-encoding mRNA (HEK293 cells): neither HBpep-SA nor HBpep-SP peptide coacervates with luciferase-encoding mRNA caused cytotoxicity
- cytotoxicity of coacervates with luciferase-encoding mRNA (HepG2 cells [1]): neither HBpep-SA nor HBpep-SP peptide coacervates with luciferase-encoding mRNA caused cytotoxicity

Compound: lysozyme: Alexa Fluor 488-labeled lysozyme, cargo protein
- internalization / crossing of the cell membrane by free cargo (HepG2 cells [5]): neither lysozyme (FIGS. 8E, 8F) nor BSA (FIGS. 8G, 8H) were internalized by HepG2 cells
